Measurements as given in ChEMBL document CHEMBL1139933, “Synthesis of andrographolide derivatives: a new family of alpha-glucosidase inhibitors” (Bioorg Med Chem, 2007).
Calls of active or inactive are those of the source. The calls are words filed in the database; no cut-off is given here.

The compounds below were run against T1, Maltase-glucoamylase (Homo sapiens, UniProt O43451) (assay: Inhibition of alpha-glucosidase at 100 uM).
Target sequence in this assay (O43451 whole entry, looked up): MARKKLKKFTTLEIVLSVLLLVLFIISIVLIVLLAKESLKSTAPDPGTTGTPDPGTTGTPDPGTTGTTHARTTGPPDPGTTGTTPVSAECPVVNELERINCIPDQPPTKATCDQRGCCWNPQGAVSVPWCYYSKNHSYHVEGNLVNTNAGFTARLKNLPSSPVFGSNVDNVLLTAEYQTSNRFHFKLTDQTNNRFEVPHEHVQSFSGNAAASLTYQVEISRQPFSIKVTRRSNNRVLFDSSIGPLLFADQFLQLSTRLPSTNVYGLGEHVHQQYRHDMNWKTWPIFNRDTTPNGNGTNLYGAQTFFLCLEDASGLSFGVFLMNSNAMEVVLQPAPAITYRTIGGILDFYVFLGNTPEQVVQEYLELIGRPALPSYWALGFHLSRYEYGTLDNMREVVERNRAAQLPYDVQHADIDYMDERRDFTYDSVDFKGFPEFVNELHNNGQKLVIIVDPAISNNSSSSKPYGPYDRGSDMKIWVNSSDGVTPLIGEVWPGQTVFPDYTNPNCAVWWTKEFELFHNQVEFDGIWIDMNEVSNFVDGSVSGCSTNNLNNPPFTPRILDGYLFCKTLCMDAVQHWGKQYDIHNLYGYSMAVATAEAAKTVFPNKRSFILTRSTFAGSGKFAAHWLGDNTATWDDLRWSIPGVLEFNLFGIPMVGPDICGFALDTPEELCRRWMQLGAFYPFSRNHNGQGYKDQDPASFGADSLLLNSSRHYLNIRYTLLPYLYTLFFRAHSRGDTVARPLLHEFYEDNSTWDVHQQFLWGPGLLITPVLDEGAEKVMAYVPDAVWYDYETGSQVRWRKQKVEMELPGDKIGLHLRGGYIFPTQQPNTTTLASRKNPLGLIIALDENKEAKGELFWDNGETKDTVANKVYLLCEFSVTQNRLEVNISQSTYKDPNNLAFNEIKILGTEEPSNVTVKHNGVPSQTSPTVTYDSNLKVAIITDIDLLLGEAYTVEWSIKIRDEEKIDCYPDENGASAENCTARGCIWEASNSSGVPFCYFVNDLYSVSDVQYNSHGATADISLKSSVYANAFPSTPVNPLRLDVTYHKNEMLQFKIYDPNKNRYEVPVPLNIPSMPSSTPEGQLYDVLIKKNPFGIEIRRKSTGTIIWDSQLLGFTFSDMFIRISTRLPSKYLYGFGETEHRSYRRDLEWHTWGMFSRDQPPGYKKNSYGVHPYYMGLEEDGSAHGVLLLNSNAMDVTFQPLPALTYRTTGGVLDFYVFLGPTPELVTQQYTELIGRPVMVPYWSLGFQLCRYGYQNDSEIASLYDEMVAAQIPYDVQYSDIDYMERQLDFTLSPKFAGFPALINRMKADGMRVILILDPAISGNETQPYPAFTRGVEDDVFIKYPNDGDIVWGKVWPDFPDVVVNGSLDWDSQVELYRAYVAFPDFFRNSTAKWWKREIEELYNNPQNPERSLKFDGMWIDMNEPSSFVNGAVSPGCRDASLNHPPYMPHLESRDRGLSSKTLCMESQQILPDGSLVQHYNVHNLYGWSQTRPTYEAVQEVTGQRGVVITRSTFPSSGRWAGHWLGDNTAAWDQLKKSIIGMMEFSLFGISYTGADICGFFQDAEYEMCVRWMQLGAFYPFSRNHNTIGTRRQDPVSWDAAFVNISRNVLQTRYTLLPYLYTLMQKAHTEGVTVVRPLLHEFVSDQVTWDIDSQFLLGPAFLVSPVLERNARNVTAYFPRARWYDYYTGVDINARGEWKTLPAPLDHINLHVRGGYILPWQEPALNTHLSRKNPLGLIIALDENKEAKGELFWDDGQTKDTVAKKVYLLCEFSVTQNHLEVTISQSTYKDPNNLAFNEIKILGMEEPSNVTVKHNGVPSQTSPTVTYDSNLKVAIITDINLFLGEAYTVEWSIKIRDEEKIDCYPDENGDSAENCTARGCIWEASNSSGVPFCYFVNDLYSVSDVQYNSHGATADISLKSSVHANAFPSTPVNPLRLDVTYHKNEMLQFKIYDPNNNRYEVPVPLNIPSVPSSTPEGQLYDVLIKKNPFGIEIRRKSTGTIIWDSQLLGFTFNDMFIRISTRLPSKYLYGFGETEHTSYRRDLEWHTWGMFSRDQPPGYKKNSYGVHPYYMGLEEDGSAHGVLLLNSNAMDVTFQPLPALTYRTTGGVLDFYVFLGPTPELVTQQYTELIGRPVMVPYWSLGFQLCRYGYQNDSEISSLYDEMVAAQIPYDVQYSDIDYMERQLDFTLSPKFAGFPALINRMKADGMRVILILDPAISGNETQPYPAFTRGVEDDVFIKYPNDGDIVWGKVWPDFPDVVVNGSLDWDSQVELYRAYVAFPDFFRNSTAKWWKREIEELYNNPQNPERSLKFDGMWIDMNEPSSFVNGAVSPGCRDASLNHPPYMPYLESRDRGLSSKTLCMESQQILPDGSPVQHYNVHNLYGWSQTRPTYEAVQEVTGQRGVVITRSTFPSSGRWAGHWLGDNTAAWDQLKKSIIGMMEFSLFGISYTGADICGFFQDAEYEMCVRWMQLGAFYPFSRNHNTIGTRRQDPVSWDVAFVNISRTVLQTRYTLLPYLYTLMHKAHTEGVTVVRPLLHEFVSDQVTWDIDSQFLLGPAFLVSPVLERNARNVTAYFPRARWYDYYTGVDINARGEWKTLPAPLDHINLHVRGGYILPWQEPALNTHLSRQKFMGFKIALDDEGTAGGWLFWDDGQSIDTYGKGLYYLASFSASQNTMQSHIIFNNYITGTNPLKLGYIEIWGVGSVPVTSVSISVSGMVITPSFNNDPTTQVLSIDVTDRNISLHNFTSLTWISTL
In the case of C=C1CC[C@@H]2[C@](C)(CO)[C@H](O)CC[C@@]2(C)[C@@H]1CCC1CCOC1=O (stereo partly specified), the Activity is reported as “inactive”.
For C=C1CC[C@@H]2[C@](C)(COC(=O)c3cccnc3)[C@H](OC(=O)c3cccnc3)CC[C@@]2(C)[C@@H]1/C=C/C1=CC(=C\c2ccc(OC)cc2)/OC1=O, the inhibition was 100%.
With C=C1CC[C@@H]2[C@](C)(CO)[C@H](O)CC[C@@]2(C)[C@@H]1C/C=C1/C(=O)OC[C@H]1O the Activity was “inactive”.
C=C1CC[C@@H]2[C@](C)(CO)[C@H](O)CC[C@@]2(C)[C@@H]1/C=C/C1=CC(=C/c2ccco2)/OC1=O gave an inhibition of 49.6%.
In the case of C=C1CC[C@@H]2[C@](C)(COC(=O)c3cccnc3)[C@H](OC(=O)c3cccnc3)CC[C@@]2(C)[C@@H]1/C=C/C1=CC(=C\c2cccc(Br)c2)/OC1=O, the inhibition is reported as 100%.
C=C1CC[C@@H]2[C@]3(C)COCO[C@@H]3CC[C@@]2(C)[C@@H]1CC(O)C1=CCOC1=O (stereo partly specified) gave an inhibition of 6.9%.
C=C1CC[C@@H]2[C@](C)(COC(=O)c3cccnc3)[C@H](OC(=O)c3cccnc3)CC[C@@]2(C)[C@@H]1/C=C/C1=CC(=C\c2ccccc2)/OC1=O showed an inhibition of 100%.
With C=C1CC[C@@H]2[C@](C)(CO)[C@H](O)CC[C@@]2(C)[C@@H]1/C=C/C1=CC(=C/c2ccc(N(C)C)cc2)/OC1=O the inhibition was 60.6%.
With C=C1CC[C@@H]2[C@](C)(CO)[C@H](O)CC[C@@]2(C)[C@@H]1/C=C/C1=CC(=C/c2ccc(F)cc2)/OC1=O the Activity was “inactive”.
With C=C1CC[C@@H]2[C@](C)(COC(=O)c3cccnc3)[C@H](OC(=O)c3cccnc3)CC[C@@]2(C)[C@@H]1/C=C/C1=CC(=C\c2ccc(Cl)cc2)/OC1=O the inhibition was 100%.
C=C1CC[C@@H]2[C@](C)(COC(=O)c3cccnc3)[C@H](OC(=O)c3cccnc3)CC[C@@]2(C)[C@@H]1/C=C/C1=CC(=C\C(C)=C\CCC/C=C/C)/OC1=O showed an inhibition of 68.9%.
In the case of C=C1CC[C@@H]2[C@](C)(CO)[C@H](O)CC[C@@]2(C)[C@@H]1/C=C/C1=CC(=C\C(C)=C\CCC/C=C/C)/OC1=O, the Activity is reported as “inactive”.
For C=C1CC[C@@H]2[C@](C)(CO)[C@H](O)CC[C@@]2(C)[C@@H]1/C=C/C1=CC(=C/c2ccc(Cl)cc2)/OC1=O, the Activity was “inactive”.
C=C1CC[C@@H]2[C@](C)(CO)[C@H](O)CC[C@@]2(C)[C@@H]1/C=C/C1=CC(=C/c2ccccc2)/OC1=O showed an inhibition of 84.3%.
With C=C1CC[C@@H]2[C@](C)(CO)[C@H](O)CC[C@@]2(C)[C@@H]1/C=C/C1=CC(=C/c2ccc3c(c2)OCO3)/OC1=O the inhibition was 59.3%.
C=C1CC[C@@H]2[C@](C)(CO)[C@H](O)CC[C@@]2(C)[C@@H]1/C=C/C1=CC(=C/c2cc(OC)c(OC)cc2OC)/OC1=O was tested, and the inhibition was 57.8%.
C[C@]1(CO)[C@H]2CC[C@@]3(CO3)[C@@H](C/C=C3/C(=O)OC[C@H]3O)[C@]2(C)CC[C@H]1O was tested, and the Activity was “inactive”.
Compound C=C1CC[C@@H]2[C@](C)(COC(=O)c3cccnc3)[C@H](OC(=O)c3cccnc3)CC[C@@]2(C)[C@@H]1/C=C/C1=CC(=C/c2ccco2)/OC1=O has an inhibition of 95.9%.
C=C1CC[C@@H]2[C@](C)(COC(=O)c3cccnc3)[C@H](OC(=O)c3cccnc3)CC[C@@]2(C)[C@@H]1/C=C/C1=CC(=C\c2ccc(N(C)C)cc2)/OC1=O gave an inhibition of 74.8%.

The compounds below were run against T1, Maltase-glucoamylase (assay: Inhibition of alpha-glucosidase).
Target sequence in this assay (O43451 whole entry): as the sequence (O43451 whole entry, looked up) above
C=C1CC[C@@H]2[C@](C)(CO)[C@H](O)CC[C@@]2(C)[C@@H]1/C=C/C1=CC(=C/c2ccc(OC)cc2)/OC1=O showed an IC50 of 16 µM.

What follows are compounds tested against T1, Maltase-glucoamylase (assay: Inhibition of alpha-glucosidase at 1 mM).
Target sequence in this assay (O43451 whole entry, looked up): as above
Work on C[C@H]1O[C@H](O[C@H]2[C@H](O)[C@@H](O)[C@@H](O[C@H]3[C@H](O)[C@@H](O)C(O)O[C@@H]3CO)O[C@@H]2CO)[C@H](O)[C@@H](O)[C@@H]1N[C@H]1C=C(CO)[C@@H](O)[C@H](O)[C@H]1O (stereo partly specified) yielded an inhibition of 56.5%.
